The target of the test is T1, rabbit lung angiotensin converting enzyme (Oryctolagus cuniculus, UniProt P12822).
T1 construct: rabbit lung angiotensin converting enzyme (Sigma Chemical Company, St. Louis, Mo.); purchased Sigma Chemical Company, St. Louis, Mo; host or cells: rabbit lung (tissue-derived enzyme)
T1 sequence (P12822 34-1310): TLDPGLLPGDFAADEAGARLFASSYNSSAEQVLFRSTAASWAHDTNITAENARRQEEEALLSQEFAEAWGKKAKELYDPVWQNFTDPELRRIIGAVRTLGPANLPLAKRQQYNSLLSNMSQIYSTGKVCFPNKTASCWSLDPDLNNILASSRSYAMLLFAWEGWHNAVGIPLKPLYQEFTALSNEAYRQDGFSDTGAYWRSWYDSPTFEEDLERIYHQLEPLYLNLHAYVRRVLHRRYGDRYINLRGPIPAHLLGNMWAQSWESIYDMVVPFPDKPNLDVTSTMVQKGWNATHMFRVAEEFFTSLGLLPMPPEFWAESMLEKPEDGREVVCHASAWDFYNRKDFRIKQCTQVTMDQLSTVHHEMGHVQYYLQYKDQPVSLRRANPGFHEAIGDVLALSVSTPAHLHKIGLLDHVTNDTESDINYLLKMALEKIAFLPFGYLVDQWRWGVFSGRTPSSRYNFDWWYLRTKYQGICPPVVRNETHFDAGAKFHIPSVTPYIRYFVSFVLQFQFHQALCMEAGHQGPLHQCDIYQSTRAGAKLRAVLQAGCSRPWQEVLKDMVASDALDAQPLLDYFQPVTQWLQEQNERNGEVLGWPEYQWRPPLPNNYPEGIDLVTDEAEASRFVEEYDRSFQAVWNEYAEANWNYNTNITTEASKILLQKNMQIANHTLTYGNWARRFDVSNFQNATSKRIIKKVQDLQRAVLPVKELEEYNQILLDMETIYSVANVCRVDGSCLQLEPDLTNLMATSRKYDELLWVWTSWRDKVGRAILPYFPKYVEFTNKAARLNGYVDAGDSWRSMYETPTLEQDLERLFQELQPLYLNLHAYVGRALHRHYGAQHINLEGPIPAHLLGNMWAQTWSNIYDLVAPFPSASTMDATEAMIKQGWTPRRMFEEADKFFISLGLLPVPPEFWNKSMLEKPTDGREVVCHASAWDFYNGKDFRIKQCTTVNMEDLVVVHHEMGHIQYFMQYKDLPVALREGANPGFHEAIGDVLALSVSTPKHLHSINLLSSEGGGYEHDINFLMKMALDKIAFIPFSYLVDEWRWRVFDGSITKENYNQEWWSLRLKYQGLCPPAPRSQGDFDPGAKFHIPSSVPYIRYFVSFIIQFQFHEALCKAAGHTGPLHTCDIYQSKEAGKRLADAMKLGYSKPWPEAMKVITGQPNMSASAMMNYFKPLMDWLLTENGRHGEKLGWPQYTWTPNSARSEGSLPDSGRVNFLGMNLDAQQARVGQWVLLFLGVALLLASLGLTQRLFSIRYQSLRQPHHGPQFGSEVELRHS
Description: ACE inhibitory activity, FAPGG substrate. It counts as biochemical. The following applies: synthetic peptides, 37° C., 30 minutes, read-out: ACE Inhibition (IC50). The protocol: Angiotensin-I-converting enzyme inhibitory activity was determined using FAPGG as the substrate. A mixture containing 100 μl of 1 mM FAPGG, 20 μl of the soy peptide solution, and 80 μl of reaction solution (100 mM Tris-HCl, pH 8.3, containing 0.3 M NaCl, 10 mM ZnCl2, and 0.025 U/ml rabbit lung angiotensin converting enzyme (Sigma Chemical Company, St. Louis, Mo.)) was added to a 96-well plate. The reaction was carried out at 37° C. for 30 minutes and the absorbance of the mixture was read using a spectrophotometry set at 340 nm to determine the enzyme activity. 20 μl of distilled water was used in the place of the soy peptide solution in each assay as a negative control. The inhibitory potency (IC50) of each fraction of the soy peptides was determined from plots of percentage inhibition vs. log 10[soy peptide] (mg/L). IC50 value of Angiotensin-I-converting enzyme, defined as the amount of soy peptide that produced a 50% inhibition of ACE activity, was determined for selected fractions. Captopril was used as the positive control.

Where no end group is shown, it is not given here.

As a reminder, the IC50 is the concentration needed to halve the response being measured. On to IPRPRPRP [IP-8, IPRPRPRP], for which the IC50 came to 7.2 ± 1.7 µM. As for LKPDNR [LR-6, LKPDNR], the figure is 121 ± 1.7 µM; as for PIPFP [PP-5, PIPFP], 66 ± 15.3 µM. For the substance PVNKP [PP-5-1, PVNKP], the IC50 is 46.1 ± 5.2 µM.
